From US11179409B2, “Cucurbitane tetracyclic triterpenoid compounds for application in treating pulmonary fibrosis” (CHENGDU BIOPURIFY LTD., priority 2015, dated 2021)

Legend:
[1] = system: bleomycin-induced pulmonary fibrosis model mice; experiment: Bleomycin-induced mice pulmonary fibrosis model (tracheal bleomycin, stomach perfusion of drug); type: in vivo; conditions: for No. of neutrophils in bronchoalveolar lavage fluid / Total No. of cells in bronchoalveolar lavage fluid: n = 5; for Lung tissue fibrosis degree (Masson staining) compared with model group: mice killed on day 28; for Lung coefficients compared with model group: day 28 after modeling, FIG. 7
[2] = system: bleomycin-induced pulmonary fibrosis model mice; experiment: as above; type: in vivo; conditions: for Body weights compared with model group / Lung coefficients (lung weight mg/body weight g) compared with model group: high-dose and low-dose mogroside IIIe groups, prednisone acetate 6.67 mg/kg/d, P<0.01; for Body weights compared with model group: after 14 and 28 days of administration, FIG. 1; for Lung coefficients (lung weight mg/body weight g) compared with model group: after administration for 14 days and 28 days, FIG. 2; for Lung tissue fibrosis degree (Masson staining) compared with model group: lung section on day 28, FIG. 3
Description: The above mogroside IIIe is selected to be subjected to in-vivo pharmacodynamical research. Injection of a bleomycin-induced mice pulmonary fibrosis model is a commonly used method in the world, and such model is similar to a human pulmonary interstitial fibrosis model.
100 male ICR mice with a body weight of 25-30 g are provided by Comparative Medicine Center of Yangzhou University.
20 mice are used as a blank control group (control group in FIG. 1), and the other 80 mice are used for modeling. All the above mice are anesthetized by virtue of intraperitoneal injection of 4% chloral hydrate, with injection volume of 10 ml/kg. After anesthesia, each mouse is fixed and the neck of the mouse is disinfected; the skin of its neck is cut longitudinally with scissors to expose the trachea; the syringe is inserted into the trachea. The mice in the blank control group are injected with normal saline, and the remaining mice are injected with bleomycin (5 mg/kg); then the mouse plate is quickly erected and rotated, and the wound of each mouse is sutured after observing the breathing condition of the mouse, and 1-2 drops of penicillin injection are dropped at the suture. The postoperative mouse is placed back in a dry and clean mouse cage for rest, and then is normally fed after it revives approximately 1-2 h later.
Starting from the day 7 after modeling, the other 80 mice are randomly divided into a model group, a positive drug (prednisone acetate) group, a high-dose mogroside IIIe (50 mg/kg, mogroside IIIe-H) group, a low-dose mogroside IIIe group (10 mg/kg, mogroside IIIe-L), 20 mice in each group.
The mice in the blank control group and the model group are subjected to stomach perfusion with normal saline every day, the mice in the positive drug group are subjected to stomach perfusion with 6.67 mg/kg/d prednisone acetate, the mice in the high-dose/low-dose mogroside IIIe groups are subjected to stomach perfusion with 50 mg/kg/d and 10 mg/kg/d respectively for continuous 28 days, and are killed on the day 14 and the day 28. The each mouse is recorded in body weight, the lung tissue is taken out via dissection, cleaned with ice normal saline, sucked dry with absorbent paper and weighed, and then a lung coefficient is calculated, i.e., lung coefficient=lung weight (mg)/body weight (g). The left lung is put into 4% neutral formaldehyde for fixation, gradually dehydrated with alcohol, transparentized with xylene, immersed in wax, embedded in paraffin, then routinely sectioned and subjected to Masson staining, so that the lung tissue morphology, lung injury condition and pulmonary fibrosis degree are observed. Other lung lobes are individually stored for determination of HYP content.
All data are expressed as mean±SD(x±s). SPSS 11.5 statistical software is used for processing. Statistical analysis is performed using one-way ANOVA. P<0.05 represents this group has statistical significance.
For mice lung tissue injury caused by bleomycin, the number of leukocytes is increased, especially neutrophil infiltration causes alveolar inflammation, and inflammatory cells release inflammatory mediators NO, TNF-α and various cytokines, thereby on one hand, aggravating lung tissue injury and on the other hand promoting excessive increase of collagen through various growth factors. This experiment is performed in accordance with requirement specification of a kit. The number of leukocytes in the bronchoalveolar lavage fluid of the mice in each group is detected by a colorimetric method on the day 14 (as shown in Table 1). Neutrophils and lymphocytes are obviously accumulated in the bronchoalveolar lavage fluid of the mice on the day 14 after treatment with bleomycin (BLM).
Hydrooxyproline (HPY) is an amino acid obtained through protein hydrolysis of connective tissues, accounts for about 14% of the weight of collagen and plays a crucial role in stability of collagen. […]

[3] = system: TGF-β1-induced human alveoli type II epithelial cells (A549); experiment: α-SMA expression (Western blot) in TGF-β1-induced A549 epithelial-mesenchymal transition; type: cell-based; conditions: TGF-β1 5 ng/mL, culture 48 hours, concentration of 50 μM, FIG. 5
Description: Alveolar epithelial cells can obtain mesenchymal cell phenotypes through an epithelial cell-mesenchyme transformation (EMT) process to serve as an important source of myofibroblast and muscle fiber metrocyte. In this new mode, epithelial cell-mesenchyme transformation of pulmonary alveoli should be considered as one of key links of fibrosis. In mature cells, injury can induce transformation of epithelial cells into mesenchymal cell phenotype, thus facilitating the fibrosis of many organs. Fibroblasts and muscle fiber metrocytes differentiated from epithelial cells often change through form (for example, change from a cubical cell form to a strip form or a fusiform), obtaining of specific marker of the fibroblast or the muscle fiber metrocyte (for example, α-SMA) and loss of the epithelial character marker (for example, epithelial cell cadherin (E-cadherin and closely linked protein) are fussed together with these epithelial tissues. Through an in-vitro test, A549 cells are induced with TGF-β1 to generate epithelial cell-mesenchyme transformation (EMT), the α-SMA expression level of actin is analyzed adopting a Western blot method, and study meaning of mogroside IIIe on pathogensis of pulmonary fibrosis in a signal transduction pathway of an EMT process is discussed. […]

[4] = system: LPS-induced RAW264.7 cells; experiment: NO level in LPS-induced RAW264.7 cells; type: cell-based, mice; conditions: within a range of 10-100 μM
[5] = Example 2, Table 2, 50 mg/kg high-dose group, day 14, *P<0.05 vs model group
[6] = Example 2, mogroside IVe 50 mg/kg and 20 mg/kg, prednisone acetate 6.67 mg/kg/d, after administration for 14 days and 28 days, P<0.01, FIG. 6
[7] = Example 2, mogroside IVe 50 mg/kg and 20 mg/kg, prednisone acetate 6.67 mg/kg/d, P<0.01
[8] = Example 3, mogrol 50 mg/kg and 20 mg/kg, prednisone acetate 7.0 mg/kg/d, FIG. 9
[9] = Example 3, Table 3, 50 mg/kg high-dose group, day 14, vs model group
[10] = Example 1, Table 1, 50 mg/kg high-dose group, day 14, mean±SD, *P<0.05 vs model group
[11] = Example 1, on the 28 d after administration, P<0.05 or P<0.01

Structure (SMILES) | Lung tissue fibrosis degree (Masson staining) compared with model group ([1]; Example 2, FIG. 8) | Body weights compared with model group [1, 6] | Lung coefficients compared with model group [1, 7] | Body weights compared with model group ([2]; Example 1) | Lung coefficients (lung weight mg/body weight g) compared with model group ([2]; Example 1) | Lung tissue fibrosis degree (Masson staining) compared with model group ([2]; Example 1) | Body weights compared with model group [1, 8] | other results
C[C@H](CC[C@@H](O[C@@H]1O[C@H](CO)[C@@H](O)[C@H](O)[C@H]1O[C@@H]1O[C@H](CO)[C@@H](O)[C@H](O)[C@H]1O)C(C)(C)O)[C@H]1CC[C@@]2(C)[C@H]3CC=C4[C@@H](CC[C@H](O[C@@H]5O[C@H](CO[C@@H]6O[C@H](CO)[C@@H](O)[C@H](O)[C@H]6O)[C@@H](O)[C@H](O)[C@H]5O)C4(C)C)[C@]3(C)[C@H](O)C[C@]12C [mogroside IVe] | fibroblast hyperplasia degree is lower than that in the model group | obviously increased | obviously reduced | – | – | – | – | No. of neutrophils in bronchoalveolar lavage fluid [1, 5]: 3.97 ± 3.89* ×10^4; Total No. of cells in bronchoalveolar lavage fluid [1, 5]: 30.84 ± 16.49* ×10^4
CC(=O)OCC(=O)[C@@]1(O)CC[C@H]2[C@@H]3CCC4=CC(=O)C=C[C@]4(C)[C@H]3C(=O)C[C@@]21C [prednisone acetate, reference compound] | relieved | obviously increased | obviously reduced | obviously increased | obviously decreased | the degree of the lesion is relieved than that in the model group | obviously increased | –
C[C@H](CC[C@@H](O)C(C)(C)O)[C@H]1CC[C@@]2(C)[C@@H]3CC=C4[C@@H](CC[C@H](O)C4(C)C)[C@]3(C)[C@H](O)C[C@]12C [mogrol] | – | – | – | – | – | – | obviously increased | No. of neutrophils in bronchoalveolar lavage fluid [1, 9]: 4.16 ± 4.26 ×10^4; Total No. of cells in bronchoalveolar lavage fluid [1, 9]: 34.72 ± 17.83 ×10^4; Lung tissue fibrosis degree (Masson staining) compared with model group ([1]; Example 3, high-dose/low-dose mogrol (50, 20 mg/kg), FIG. 10): fibroblast hyperplasia degree is lower than that in the model group; Lung index compared with model group ([1]; Example 3, high-dose/low-dose mogrol groups): obviously reduce lung index
C[C@H](CC[C@@H](O[C@@H]1O[C@H](CO)[C@@H](O)[C@H](O)[C@H]1O[C@@H]1O[C@H](CO)[C@@H](O)[C@H](O)[C@H]1O)C(C)(C)O)[C@H]1CC[C@@]2(C)[C@@H]3CC=C4[C@@H](CC[C@H](O[C@@H]5O[C@H](CO)[C@@H](O)[C@H](O)[C@H]5O)C4(C)C)[C@]3(C)[C@H](O)C[C@]12C [mogroside IIIe] | – | – | – | obviously increased | obviously decreased | fibroblast hyperplasia degree is lower than that in the model group | – | Total number of cells in bronchoalveolar lavage fluid [2, 10]: 32.81 ± 18.53*; Content of TNF-α in the lung tissue compared with model group [2, 11]: significantly lower than those in the model group; α-SMA expression caused by TGF-β1 [3]: significantly inhibit; Level of NO [4]: dose dependence to inhibit the level of NO; Number of neutrophils in bronchoalveolar lavage fluid [1, 10]: 4.28 ± 4.52*; Content of HYP in lung tissue compared with model group ([1]; Example 1, 50 mg/kg, day 28, digestion method, P<0.05, FIG. 4): obviously reduce the content of HYP; Content of TGF-β1 compared with model group [1, 11]: significantly lower than those in the model group
